Results as given in ChEMBL document CHEMBL4431318, “Design, synthesis and biological evaluation of novel 5-fluoro-1H-benzimidazole-4-carboxamide derivatives as potent PARP-1 inhibitors” (Bioorg Med Chem Lett, 2016).

How the values were obtained:
[1] = molecular target: T1, Poly [ADP-ribose] polymerase 1 (Homo sapiens, UniProt P09874); assay: Inhibition of PARP1 (unknown origin)
HCT-116 [2] = assay: Cytotoxicity against human HCT116 cells by SRB assay; format: functional, cell-based
HCT-116 [3] = assay: Potency index, ratio of IC50 for veliparib to IC50 for test compound against human HCT116 cells; format: functional
[4] = molecular target: T1, Poly [ADP-ribose] polymerase 1; conditions: A549
Description: Inhibition of PARP1 in human A549 cells assessed as potentiation of TMZ-mediated cytotoxicity at 0.5 uM by SRB assay

T1 sequence (P09874 whole entry): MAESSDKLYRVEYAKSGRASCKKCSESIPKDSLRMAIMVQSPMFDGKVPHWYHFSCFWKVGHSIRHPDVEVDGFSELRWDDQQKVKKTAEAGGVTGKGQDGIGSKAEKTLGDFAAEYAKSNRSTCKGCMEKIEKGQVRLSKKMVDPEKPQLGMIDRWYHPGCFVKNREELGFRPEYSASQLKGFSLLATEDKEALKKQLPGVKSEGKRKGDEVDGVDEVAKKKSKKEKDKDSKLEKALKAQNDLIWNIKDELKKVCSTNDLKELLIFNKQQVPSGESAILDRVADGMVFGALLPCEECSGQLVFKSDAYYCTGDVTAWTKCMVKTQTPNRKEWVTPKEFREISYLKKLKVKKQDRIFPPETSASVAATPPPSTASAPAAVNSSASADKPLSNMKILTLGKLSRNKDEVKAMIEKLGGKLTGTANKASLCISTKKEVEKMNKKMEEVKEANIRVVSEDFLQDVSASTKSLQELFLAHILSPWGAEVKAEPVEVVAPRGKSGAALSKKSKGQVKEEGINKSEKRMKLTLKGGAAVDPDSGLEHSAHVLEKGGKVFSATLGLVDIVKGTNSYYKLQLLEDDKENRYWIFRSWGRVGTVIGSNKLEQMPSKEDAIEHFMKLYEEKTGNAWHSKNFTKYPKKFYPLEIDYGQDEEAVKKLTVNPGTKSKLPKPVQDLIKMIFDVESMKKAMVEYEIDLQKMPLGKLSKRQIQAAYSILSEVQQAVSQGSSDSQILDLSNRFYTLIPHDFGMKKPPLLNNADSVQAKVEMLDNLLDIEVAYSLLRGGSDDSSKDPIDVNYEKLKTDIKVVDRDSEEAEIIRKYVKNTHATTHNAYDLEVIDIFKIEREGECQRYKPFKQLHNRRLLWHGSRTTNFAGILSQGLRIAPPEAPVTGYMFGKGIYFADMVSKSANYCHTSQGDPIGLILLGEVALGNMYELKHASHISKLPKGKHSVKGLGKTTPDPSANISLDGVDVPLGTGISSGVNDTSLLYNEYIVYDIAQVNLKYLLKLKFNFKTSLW

SMILES | IC50 [1] | IC50 (HCT-116 [2]; Homo sapiens, HCT-116) | Ratio IC50 (HCT-116 [3]) | IC50 (HCT-116 [2]; hct-116) | PF50 [4]
NC(=O)c1c(F)ccc2[nH]c(C3CCNCC3)nc12 | 39.1 nM | > 100000 nM | – | – | –
NC(=O)c1c(F)ccc2[nH]c(C3CCCNC3)nc12 (configuration not stated) | 25.8 nM | – | – | – | –
NC(=O)c1c(F)ccc2[nH]c(-c3ccc(N4CCOCC4)cc3)nc12 | 21.8 nM | 27000 nM | 2.3 | – | –
C[C@]1(c2nc3c(C(N)=O)c(F)ccc3[nH]2)CCCN1 | 5.7 nM | > 100000 nM | – | – | –
CN1CCC[C@@]1(C)c1nc2c(C(N)=O)c(F)ccc2[nH]1 | 21.7 nM | > 100000 nM | – | – | –
NC(=O)c1c(F)ccc2[nH]c(-c3ccc(N4CCNCC4)cc3)nc12 | 43.7 nM | 7400 nM | 8.6 | – | –
C[C@]1(c2nc3c(C(N)=O)cccc3[nH]2)CCCN1 [VELIPARIB] | – | – | – | 64000 nM | 2.2
CCCN1CCC(c2nc3c(C(N)=O)c(F)ccc3[nH]2)CC1 | 29.8 nM | 65500 nM | – | – | –
